From the NIST ThermoML archive (doi:10.1007/s10765-011-1149-x)
Numbers after ± are expanded uncertainties.

Tests used:
[1] = 101 kPa, Liquid, Vibrating tube method
[2] = xn = mol fraction of the nth substance listed; settings: 101 kPa, Liquid, Vibrating tube method, x2 = 0

OCCO [1,2-ethanediol]
[1]
Settings	mass density [kg/m3]
276.15 K	1125.17 ± 0.17
277.15 K	1124.48 ± 0.17
283.15 K	1120.32 ± 0.16
293.15 K	1113.37 ± 0.16
303.15 K	1106.36 ± 0.16
313.15 K	1099.3 ± 0.16

OCCO [1,2-ethanediol] + Cc1cc(C)nc(C)c1
[2]
Settings	mass density [kg/m3]
276.15 K	1125.17 ± 0.17
277.15 K	1124.48 ± 0.17
283.15 K	1120.32 ± 0.16
293.15 K	1113.37 ± 0.16
303.15 K	1106.36 ± 0.16
313.15 K	1099.3 ± 0.16

Cc1cc(C)nc(C)c1 [2,4,6-trimethylpyridine]
[1]
Settings	mass density [kg/m3]
276.15 K	928.45 ± 0.23
277.15 K	927.61 ± 0.23
283.15 K	922.54 ± 0.23
288.15 K	918.32 ± 0.24
293.14 K	914.08 ± 0.24
298.15 K	909.84 ± 0.24
303.15 K	905.58 ± 0.24
308.15 K	901.31 ± 0.24
313.15 K	897.03 ± 0.24

CO [methanol]
[1]
Settings	mass density [kg/m3]
276.15 K	807.18 ± 0.15
277.15 K	806.25 ± 0.15
283.15 K	800.64 ± 0.15
288.15 K	795.96 ± 0.15
293.15 K	791.26 ± 0.15
298.15 K	786.55 ± 0.15
303.15 K	781.83 ± 0.15
308.15 K	777.08 ± 0.15
313.14 K	772.31 ± 0.16

CO [methanol] + Cc1cc(C)nc(C)c1
[2]
Settings	mass density [kg/m3]
276.15 K	807.18 ± 0.15
277.15 K	806.25 ± 0.15
283.15 K	800.64 ± 0.15
288.15 K	795.96 ± 0.15
293.15 K	791.26 ± 0.15
298.15 K	786.55 ± 0.15
303.15 K	781.83 ± 0.15
308.15 K	777.08 ± 0.15
313.14 K	772.31 ± 0.16
